One assay concerns ddY male mice. The assay can be described thus: Forced swimming test in mice (antidepressant action). The class given is in vivo. The procedure: When an antidepressant is administered in advance, the immobility time is shortened. The shortened immobility time is used as an index of an antidepressant action to be evaluated. This test method is widely used as an experimental animal model reflecting the clinical antidepressant effect.
In this test, the action of a combined use of 7-[4-(4-benzo[b]thiophen-4-yl-piperazin-1-yl)butoxy]-1H-quinolin-2-one (Compound (I)) and 9 kinds of antidepressants (serotonin reuptake inhibitors, or serotonin and norepinephrine reuptake inhibitors) on the immobility time was compared.
As the animal, ddY male mice (5 to 6-week-old) were used. Various antidepressants and Compound (I) or each vehicle were administered to the mice before the start of the test, the mice were placed in a cylindrical water tank, and immobility time during 2 min to 4 min after the start of swimming was measured by a behavior analysis apparatus with an infrared sensor (SCANET; Melquest Co., Ltd.).
Compound (I) was dissolved in 1% lactic acid-physiological saline, and various antidepressants were suspended or dissolved in 5% gum arabic-distilled water and used. Various antidepressants (fluoxetine (75 mg/kg), escitalopram (60 mg/kg), paroxetine (10 mg/kg), sertraline (15 mg/kg), venlafaxine (15 mg/kg), milnacipran (30 mg/kg), fluvoxamine (75 mg/kg)) were orally administered 60 min before the start of the test, duloxetine (20 mg/kg) and desvenlafaxine (20 mg/kg) were orally administered 30 min before the start of the test, and Compound (I) (0.001 or 0.003 mg/kg) was intraperitoneally administered 15 min before the start of the test.

A further assay relates to male ddY mice. Kind of assay: Mouse marble-burying behavior test. The class given is in vivo. To be noted: Compound (I) 0.1 mg/kg p.o., 30 min before test, n=10. The text has this: Marble-burying behavior test is a behavioral evaluation test utilizing the behavior of a mouse to bury marbles on the bedding. Since this characteristic behavior of burying harmless glass marbles in the bedding reflects the anxiety state of the animal, and is apparently similar to a compulsive act of obsessive-compulsive disorder patient, which is repeated with the recognition of irrationality, it is particularly considered a model of obsessive-compulsive disorder^1),2),3),4).
As the animal, male ddY mice (6- to 7-week-old) were used. In the test, a plastic cage (26×32×17 cm) was filled with chips to about 5 cm deep in a soundproof room, and 25 marbles (diameter 15 mm, weight about 6 g) were placed thereon at equal distances. Each mouse was orally administered with Compound (I) simultaneously with an antianxiety drug or an antidepressant or a vehicle thereof, and 30 min later, each mouse was placed in a cage containing the marbles. 30 min later, the animal was taken out from the cage, and the number of marbles covered with chips by ⅔ or more was visually counted.
Compound (I) (0.1 mg/kg) and various antidepressants (fluoxetine (10 mg/kg), paroxetine (10 mg/kg), sertraline (10 mg/kg), fluvoxamine (15 mg/kg)) were suspended in 5% gum arable-distilled water, and diazepam (antianxiety drug, 1 mg/kg) was diluted with physiological saline and used. All drugs and vehicles thereof were orally administered 30 min before the start of the test.

Setting [1] is: Compound (I) 0.003 mg/kg i.p. 15 min before test, sertraline 15 mg/kg p.o. 60 min before, n=7.
[2] abbreviates: Compound (I) 0.003 mg/kg i.p. 15 min before test, fluvoxamine 75 mg/kg p.o. 60 min before, n=10.
[3] abbreviates: Compound (I) 0.003 mg/kg i.p. 15 min before test, paroxetine 10 mg/kg p.o. 60 min before, n=10.
Where [4] appears, read: Compound (I) 0.003 mg/kg i.p. 15 min before test, duloxetine 20 mg/kg p.o. 30 min before, n=7.
Where [5] appears, read: Compound (I) 0.001 mg/kg i.p. 15 min before test, venlafaxine 15 mg/kg p.o. 60 min before, n=10.
[6] abbreviates: Compound (I) 0.003 mg/kg i.p. 15 min before test, desvenlafaxin 20 mg/kg p.o. 30 min before, n=8.
Setting [7] is: Compound (I) 0.003 mg/kg i.p. 15 min before test, escitalopram 60 mg/kg p.o. 60 min before, n=10.
Setting [8] is: Compound (I) 0.003 mg/kg i.p. 15 min before test, fluoxetine 75 mg/kg p.o. 60 min before, n=10.
Setting [9] is: Compound (I) 0.003 mg/kg i.p. 15 min before test, milnacipran 30 mg/kg p.o. 60 min before, n=10.

The values that follow come from patent US20180042923A1, “COMBINATIONS COMPRISING BREXPIPRAZOLE OR A SALT THEREOF AND A SECOND DRUG FOR USE IN THE TREATMENT OF A CNS DISORDER” (priority 2011, published 2018).

As for `CN[C@H]1CC[C@@H](c2ccc(Cl)c(Cl)c2)c2ccccc21` [sertraline], the “immobility time relative to control (%)” value in the assay on ddY male mice (setting [1]) stood at 91%. Besides, in the assay on male ddY mice (sertraline 10 mg/kg p.o.), the “number of marbles buried (average ± standard error)” value (shortened to “number … (average ± standard error)”) stood at 7.5 ± 0.7 and the “number of marbles buried relative to control (%)” value is 56%.
With `COCCCC/C(=N\OCCN)c1ccc(C(F)(F)F)cc1` [fluvoxamine], the “immobility time relative to control (%)” value in the assay with ddY male mice (setting [2]) is 95%. In addition, in the assay with male ddY mice (fluvoxamine 15 mg/kg p.o.), the “number … (average ± standard error)” value is on record as 13.5 ± 2.1 and the “number of marbles buried relative to control (%)” value is given as 83%.
`Fc1ccc([C@@H]2CCNC[C@H]2COc2ccc3c(c2)OCO3)cc1` [paroxetine]: in the assay on ddY male mice (setting [3]), the “immobility time relative to control (%)” value is 98%. In the assay on male ddY mice (paroxetine 10 mg/kg p.o.), the “number … (average ± standard error)” value was determined as 8.5 ± 2.0 and the “number of marbles buried relative to control (%)” value turned out to be 60%.
For the molecule `CNCC[C@H](Oc1cccc2ccccc12)c1cccs1` [duloxetine], the “immobility time relative to control (%)” value with ddY male mice (setting [4]) is 95%.
In the case of `COc1ccc(C(CN(C)C)C2(O)CCCCC2)cc1` (centres unmarked) [venlafaxine], in the assay with ddY male mice (setting [5]), the “immobility time relative to control (%)” value came to 96%.
Turning to `CN1C(=O)CN=C(c2ccccc2)c2cc(Cl)ccc21` [diazepam], in the assay on male ddY mice (diazepam 1 mg/kg p.o.), the “number … (average ± standard error)” value worked out at 12.8 ± 2.0 and the “number of marbles buried relative to control (%)” value is given as 85%.
For `CN(C)CC(c1ccc(O)cc1)C1(O)CCCCC1` (centres unmarked) [desvenlafaxin, desvenlafaxine], in the assay with ddY male mice (setting [6]), the “immobility time relative to control (%)” value stood at 95%.
Consider `O=c1ccc2ccc(OCCCCN3CCN(c4cccc5sccc45)CC3)cc2[nH]1` [Compound (I), 7-[4-(4-benzo[b]thiophen-4-yl-piperazin-1-yl)butoxy]-1H-quinolin-2-one], for which the “immobility time relative to control (%)” value with ddY male mice (setting [5]) came to 99%; in the assay with ddY male mice (setting [6]), 96%; in the assay on ddY male mice (setting [4]), 98%; in the assay on ddY male mice (setting [7]) it was 96%; with ddY male mice (setting [8]), 100%; in the assay on ddY male mice (setting [2]), 100%. Also, the results for the “immobility time relative to control (%)” value with ddY male mice (setting [9]), in the assay on ddY male mice (setting [3]) and in the assay with ddY male mice (setting [1]) were 101%, 98% and 87%, respectively. Moreover, the “number … (average ± standard error)” value in the assay with male ddY mice (diazepam 1 mg/kg p.o.) worked out at 14.4 ± 2.0; with male ddY mice (fluoxetine 10 mg/kg p.o.), 14.4 ± 2.0; with male ddY mice (fluvoxamine 15 mg/kg p.o.) it was 14.0 ± 1.6; in the assay with male ddY mice (paroxetine 10 mg/kg p.o.) it was 11.3 ± 1.5; in the assay on male ddY mice (sertraline 10 mg/kg p.o.) it was 12.2 ± 2.2. In addition, the “number of marbles buried relative to control (%)” value in the assay with male ddY mice (diazepam 1 mg/kg p.o.) is 96%; with male ddY mice (fluoxetine 10 mg/kg p.o.), 82%; in the assay with male ddY mice (fluvoxamine 15 mg/kg p.o.) it was 86%; with male ddY mice (paroxetine 10 mg/kg p.o.), 90%; with male ddY mice (sertraline 10 mg/kg p.o.) it was 91%.
Turning to `CN(C)CCC[C@@]1(c2ccc(F)cc2)OCc2cc(C#N)ccc21` [escitalopram], in the assay with ddY male mice (setting [7]), the “immobility time relative to control (%)” value is 95%.
As for `CNCCC(Oc1ccc(C(F)(F)F)cc1)c1ccccc1` (centres unmarked) [fluoxetine], the “immobility time relative to control (%)” value with ddY male mice (setting [8]) is recorded as 92%. Besides, in the assay on male ddY mice (fluoxetine 10 mg/kg p.o.), the “number … (average ± standard error)” value turned out to be 17.3 ± 1.5 and the “number of marbles buried relative to control (%)” value was found to be 98%.
In the case of `CCN(CC)C(=O)C1(c2ccccc2)CC1CN` (centres unmarked) [milnacipran], the “immobility time relative to control (%)” value in the assay on ddY male mice (setting [9]) is given as 97%.
